The source made the active and inactive calls. The rule behind the calls is not given here. Where only a bound is given, the exact number is not on record here.

Data on five compounds can be found in ChEMBL document CHEMBL1933062, “Synthesis of purine N9-[2-hydroxy-3-O-(phosphonomethoxy)propyl] derivatives and their side-chain modified analogs as potential antimalarial agents” (Bioorg Med Chem, 2012).

Experiment [1] deals with T1, Hypoxanthine-guanine phosphoribosyltransferase (Homo sapiens) (UniProt P00492).
T1 sequence (whole entry): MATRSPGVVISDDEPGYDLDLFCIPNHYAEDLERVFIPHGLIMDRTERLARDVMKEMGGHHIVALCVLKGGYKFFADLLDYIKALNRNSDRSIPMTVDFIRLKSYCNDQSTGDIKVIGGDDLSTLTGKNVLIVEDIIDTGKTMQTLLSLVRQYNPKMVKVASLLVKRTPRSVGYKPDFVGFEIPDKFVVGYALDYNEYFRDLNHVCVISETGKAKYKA
The experiment in a line: Inhibition of human HGPRT at >= 100 uM by spectrophotometric analysis in absence of PPi.

The target in experiment [2] is T1, Hypoxanthine-guanine phosphoribosyltransferase (Homo sapiens). The experiment in a line: Inhibition of human HGPRT at >= 100 uM by spectrophotometric analysis in presence of 52 uM PPi.
Experiment [3] concerns Plasmodium falciparum. In words: Inhibition of Plasmodium falciparum HGPRT at >= 100 uM by spectrophotometric analysis in absence of PPi.
For experiment [4], the system named is Plasmodium falciparum. In words: Inhibition of Plasmodium falciparum HGPRT at >= 100 uM by spectrophotometric analysis in presence of 52 uM PPi.
Experiment [5] deals with Plasmodium vivax. In words: Inhibition of Plasmodium vivax HGPRT at >= 100 uM by spectrophotometric analysis in absence of PPi.
The subject of experiment [6] is Plasmodium vivax. In words: Inhibition of Plasmodium vivax HGPRT at >= 100 uM by spectrophotometric analysis in presence of 52 uM PPi.
The target of experiment [7] is T2, Hypoxanthine-guanine phosphoribosyltransferase (Homo sapiens, UniProt P00492).
T2 sequence (P00492 whole entry): T1 sequence (whole entry)
The experiment in a line: (§1) Inhibition of human HGPRT by spectrophotometric analysis in absence of PPi.

Experiment [8] in a line: (§2) Inhibition of Plasmodium falciparum HGPRT by spectrophotometric analysis in absence of PPi.
The nature of experiment [9]: (§3) Inhibition of Plasmodium vivax HGPRT by spectrophotometric analysis in absence of PPi.
Experiment [10] addresses T1, Hypoxanthine-guanine phosphoribosyltransferase (Homo sapiens). The experiment in a line: Inhibition of human HGPRT at >= 30 uM by spectrophotometric analysis in presence of 52 uM PPi.
The test system of experiment [11] is Plasmodium falciparum. In words: Inhibition of Plasmodium falciparum HGPRT at >= 30 uM by spectrophotometric analysis in presence of 52 uM PPi.
Experiment [12] has as its system Plasmodium vivax. The experiment in a line: Inhibition of Plasmodium vivax HGPRT at >= 30 uM by spectrophotometric analysis in presence of 52 uM PPi.
Experiment [13] in a line: Selectivity ratio of Ki for human HGPRT to Ki for Plasmodium falciparum HGPRT.
Experiment [14] can be described thus: Selectivity ratio of Ki for human HGPRT to Ki for Plasmodium vivax HGPRT.
Experiment [15] in a line: (§4) Inhibition of Plasmodium falciparum HGPRT by spectrophotometric analysis in presence of 52 uM PPi.
The nature of experiment [16]: (§5) Inhibition of Plasmodium vivax HGPRT by spectrophotometric analysis in presence of 52 uM PPi.
The target of experiment [17] is T1, Hypoxanthine-guanine phosphoribosyltransferase (Homo sapiens). The experiment in a line: Inhibition of human HGPRT at >= 30 uM by spectrophotometric analysis in absence of PPi.
For experiment [18] the target is unchanged. The experiment is described as §1.
For experiment [19] the target is unchanged. In words: Inhibition of human HGPRT by spectrophotometric analysis in presence of 52 uM PPi.
Experiment [20] relates to Plasmodium falciparum. The experiment is described as §2.
Experiment [21] deals with Plasmodium falciparum. The experiment is described as §4.
The test system of experiment [22] is Plasmodium vivax. The experiment is described as §3.
The test system of experiment [23] is Plasmodium vivax. The description is as §5.

As for `O=C(O)COC(COCP(=O)(O)O)Cn1cnc2c(=O)[nH]cnc21` (stereo not given), the inhibition entry in [1], in experiment [2], in experiment [3], in experiment [4], in [5] and in [6] was “inactive” each time.

As for `Nc1nc2c(ncn2CC(COCP(=O)(O)O)OCC(=O)O)c(=O)[nH]1` (stereo not given), the Ki (as a rule, a measure of affinity in units of concentration, obtained from inhibition or displacement) in [7] worked out at 5 µM; in experiment [8], 5 µM; in experiment [9], 27 µM. For the same compound, the inhibition result in experiment [10], in experiment [11] and in experiment [12] was “inactive” each time. For the same compound, the figures for the Ratio Ki in [13] and in experiment [14] were 1 and 0.2, respectively.

As for `O=c1[nH]cnc2c1ncn2CC(O)COCP(=O)(O)O` (stereo not given), the Ki in [8] came out at 2 µM; in [15] it was 0.3 µM; in experiment [9], 5 µM; in experiment [16], 0.9 µM. Moreover, the inhibition entry in experiment [17] and in experiment [10] was “inactive” each time. Also, the values for the Ratio Ki in experiment [13] and in experiment [14] were more than 50 and more than 25, respectively.

In the case of `Nc1nc2c(ncn2CC(O)COCP(=O)(O)O)c(=O)[nH]1` (stereo not given), the Ki came to 4 µM in [7]; 1.4 µM in [8]; 0.5 µM in experiment [15]; 10 µM in [9]; 2.8 µM in [16]. In addition, the Ratio Ki in experiment [13] is 2.8; in [14], 0.4.

In the case of `O=c1[nH]cnc2c1ncn2/C=C\COCP(=O)(O)O`, the inhibition result in experiment [18], in experiment [19], in experiment [20], in experiment [21], in experiment [22] and in [23] was “inactive” in each case.
